Experimental data published in US10004701B2, “Methods and compositions for treating infection” (UNIVERSITY OF ROCHESTER, priority 2012, dated 2018).
Counter-ions that a name gives are not always drawn. Like-named read-outs stand apart in the source and are kept apart here.

What was measured:
Experiment in all cases: AK assay 384-well format, Prestwick library screening
[1] = test system: S. aureus strain USA300-0114; assay type: cell-based, Staphylococcus aureus; conditions: 50 μM final drug concentration; for fold induction at 50 µM: Staphylococcus aureus, USA300, 3 h
E. coli = assay type: cell-based, Escherichia coli; conditions: 50 μM final drug concentration; for fold induction at 50 µM: Escherichia coli, 3 h
P. aeruginosa = assay type: cell-based, Pseudomonas aeruginosa; conditions: 50 μM final drug concentration; for fold induction at 50 µM: Pseudomonas aeruginosa, 3 h
E. cloacae = assay type: cell-based, Enterobacter cloacae; conditions: 50 μM final drug concentration; for fold induction at 50 µM: Enterobacter cloacae, 3 h
K. pneumoniae = assay type: cell-based, Klebsiella pneumoniae; conditions: 50 μM final drug concentration; for fold induction at 50 µM: Klebsiella pneumoniae, 3 h
[2] = test system: A. baumannii strain 98-37-09; assay type: cell-based, Acinetobacter baumannii; conditions: 50 μM final drug concentration; for fold induction at 50 µM: Acinetobacter baumannii, 983709, 3 h
E. faecium = assay type: cell-based, Enterococcus faecium; conditions: 50 μM final drug concentration; for fold induction at 50 µM: Enterococcus faecium, 3 h
[3] = cutoff for positive-scoring molecules 3-fold increase
[4] = planktonic, cutoff for positive 3-fold increase

SMILES: C[C@H]1NC(=O)NC1=O [Methylhydantoin-5-(D)]
- AK-based Prestwick Library Screening Results, S. aureus (fold increase in extracellular AK activity) [1, 3]: 1.2
- AK-based Prestwick Library Screening Results, E. coli (fold increase in extracellular AK activity) (E. coli; […]): 1.2
- AK-based Prestwick Library Screening Results, P. aeruginosa (fold increase in extracellular AK activity) (P. aeruginosa; [3]): 1.2
- AK-based Prestwick Library Screening Results, E. cloacae (fold increase in extracellular AK activity) (E. cloacae; [3]): 1.5
- AK-based Prestwick Library Screening Results, K. pneumoniae (fold increase in extracellular AK activity) (K. pneumoniae; [3]): 1.1
- AK-based Prestwick Library Screening Results, A. baumannii (fold increase in extracellular AK activity) [2, 3]: 1.3
- AK-based Prestwick Library Screening Results, E. faecium (fold increase in extracellular AK activity) (E. faecium; [3]): 1.0

SMILES: O=C(O)Cc1cc(I)c(Oc2ccc(O)c(I)c2)c(I)c1
- AK-based Prestwick Library Screening Results: S. aureus (increase in extracellular AK activity) ([1]; planktonic S. aureus, 384-well, cutoff for positive-scoring molecules 3-fold increase): 0.4
- AK-based Prestwick Library Screening Results: E. coli (increase in extracellular AK activity) (E. coli; planktonic E. coli, 384-well, cutoff for positive-scoring molecules 3-fold increase): 1.1
- AK-based Prestwick Library Screening Results: P. aeruginosa (increase in extracellular AK activity) (P. aeruginosa; planktonic P. aeruginosa, 384-well, cutoff for positive-scoring molecules 3-fold increase): 1.2
- AK-based Prestwick Library Screening Results: E. cloacae (increase in extracellular AK activity) (E. cloacae; planktonic E. cloacae, 384-well, cutoff for positive-scoring molecules 3-fold increase): 1.5
- AK-based Prestwick Library Screening Results: K. pneumoniae (increase in extracellular AK activity) (K. pneumoniae; planktonic K. pneumoniae, 384-well, cutoff for positive-scoring molecules 3-fold increase): 1.0
- AK-based Prestwick Library Screening Results: A. baumannii (increase in extracellular AK activity) ([2]; planktonic A. baumannii, 384-well, cutoff for positive-scoring molecules 3-fold increase): 1.1
- AK-based Prestwick Library Screening Results: E. faecium (increase in extracellular AK activity) (E. faecium; planktonic E. faecium, 384-well, cutoff for positive-scoring molecules 3-fold increase): 1.3

SMILES: CCCN1C[C@H](CSC)C[C@@H]2c3cccc4[nH]cc(c34)C[C@H]21 [Pergolide mesylate]
- fold induction at 50 µM ([1]; planktonic S. aureus, 384-well, cutoff for positive-scoring molecules 3-fold increase, read-out: AK-based Prestwick Library Screening Results: S. aureus (increase in extracellular AK activity)): 1
- fold induction at 50 µM (E. coli; planktonic E. coli, 384-well, cutoff for positive-scoring molecules 3-fold increase, read-out: AK-based Prestwick Library Screening Results: E. coli (increase in extracellular AK activity)): 1.3
- fold induction at 50 µM (P. aeruginosa; planktonic P. aeruginosa, 384-well, cutoff for positive-scoring molecules 3-fold increase, read-out: AK-based Prestwick Library Screening Results: P. aeruginosa (increase in extracellular AK activity)): 1
- fold induction at 50 µM (E. cloacae; planktonic E. cloacae, 384-well, cutoff for positive-scoring molecules 3-fold increase, read-out: AK-based Prestwick Library Screening Results: E. cloacae (increase in extracellular AK activity)): 1.4
- fold induction at 50 µM (K. pneumoniae; planktonic K. pneumoniae, 384-well, cutoff for positive-scoring molecules 3-fold increase, read-out: AK-based Prestwick Library Screening Results: K. pneumoniae (increase in extracellular AK activity)): 0.8
- fold induction at 50 µM ([2]; planktonic A. baumannii, 384-well, cutoff for positive-scoring molecules 3-fold increase, read-out: AK-based Prestwick Library Screening Results: A. baumannii (increase in extracellular AK activity)): 1.3
- fold induction at 50 µM (E. faecium; planktonic E. faecium, 384-well, cutoff for positive-scoring molecules 3-fold increase, read-out: AK-based Prestwick Library Screening Results: E. faecium (increase in extracellular AK activity)): 1

SMILES: COc1ccc2[nH]c([S+]([O-])Cc3ncc(C)c(OC)c3C)nc2c1 (centres unmarked) [Omeprazole]
- fold induction at 50 µM ([1]; planktonic S. aureus, cutoff for positive-scoring molecules 3-fold increase, read-out: AK-based Prestwick Library Screening Results, S. aureus (increase in extracellular AK activity)): 0.2
- fold induction at 50 µM (E. coli; planktonic E. coli, cutoff for positive-scoring molecules 3-fold increase, read-out: AK-based Prestwick Library Screening Results, E. coli (increase in extracellular AK activity)): 0.7
- fold induction at 50 µM (P. aeruginosa; planktonic P. aeruginosa, cutoff for positive-scoring molecules 3-fold increase, read-out: AK-based Prestwick Library Screening Results, P. aeruginosa (increase in extracellular AK activity)): 0.6
- fold induction at 50 µM (E. cloacae; planktonic E. cloacae, cutoff for positive-scoring molecules 3-fold increase, read-out: AK-based Prestwick Library Screening Results, E. cloacae (increase in extracellular AK activity)): 0.8
- fold induction at 50 µM (K. pneumoniae; planktonic K. pneumoniae, cutoff for positive-scoring molecules 3-fold increase, read-out: AK-based Prestwick Library Screening Results, K. pneumoniae (increase in extracellular AK activity)): 0.6
- fold induction at 50 µM ([2]; planktonic A. baumannii, cutoff for positive-scoring molecules 3-fold increase, read-out: AK-based Prestwick Library Screening Results, A. baumannii (increase in extracellular AK activity)): 0.8
- fold induction at 50 µM (E. faecium; planktonic E. faecium, cutoff for positive-scoring molecules 3-fold increase, read-out: AK-based Prestwick Library Screening Results, E. faecium (increase in extracellular AK activity)): 0.8

SMILES: CC[N+]1(C)[C@@H]2CC[C@H]1CC(OC(=O)[C@@H]1CC[C@@](C(=O)OC3C[C@H]4CC[C@@H](C3)[N+]4(C)CC)(c3ccccc3)c3ccccc31)C2.[Cl-].[Cl-] (stereo partly drawn) [beta-Belladonnine dichloroethylate]
- AK-based Prestwick Library Screening Results, S. aureus (fold increase in extracellular AK activity) ([1]; planktonic, […]): 1.3
- AK-based Prestwick Library Screening Results, E. coli (fold increase in extracellular AK activity) (E. coli; planktonic, […]): 1.2
- AK-based Prestwick Library Screening Results, P. aeruginosa (fold increase in extracellular AK activity) (P. aeruginosa; planktonic, […]): 1.2
- AK-based Prestwick Library Screening Results, E. cloacae (fold increase in extracellular AK activity) (E. cloacae; planktonic, […]): 1.3
- AK-based Prestwick Library Screening Results, K. pneumoniae (fold increase in extracellular AK activity) (K. pneumoniae; planktonic, […]): 0.9
- AK-based Prestwick Library Screening Results, A. baumannii (fold increase in extracellular AK activity) ([2]; planktonic, […]): 1.0
- AK-based Prestwick Library Screening Results, E. faecium (fold increase in extracellular AK activity) (E. faecium; planktonic, […]): 1.0

SMILES: COc1ccccc1OCC(O)COC(N)=O (centres unmarked) [Methocarbamol]
- fold induction at 50 µM ([1]; 384-well format, cutoff for positive-scoring molecules 3-fold increase, read-out: AK-based Prestwick Library Screening Results, S. aureus (increase in extracellular AK activity)): 0.8
- fold induction at 50 µM (E. coli; 384-well format, cutoff for positive-scoring molecules 3-fold increase, read-out: AK-based Prestwick Library Screening Results, E. coli (increase in extracellular AK activity)): 0.9
- fold induction at 50 µM (P. aeruginosa; 384-well format, cutoff for positive-scoring molecules 3-fold increase, read-out: AK-based Prestwick Library Screening Results, P. aeruginosa (increase in extracellular AK activity)): 0.9
- fold induction at 50 µM (E. cloacae; 384-well format, cutoff for positive-scoring molecules 3-fold increase, read-out: AK-based Prestwick Library Screening Results, E. cloacae (increase in extracellular AK activity)): 1
- fold induction at 50 µM (K. pneumoniae; 384-well format, cutoff for positive-scoring molecules 3-fold increase, read-out: AK-based Prestwick Library Screening Results, K. pneumoniae (increase in extracellular AK activity)): 0.6
- fold induction at 50 µM ([2]; 384-well format, cutoff for positive-scoring molecules 3-fold increase, read-out: AK-based Prestwick Library Screening Results, A. baumannii (increase in extracellular AK activity)): 0.9
- fold induction at 50 µM (E. faecium; 384-well format, cutoff for positive-scoring molecules 3-fold increase, read-out: AK-based Prestwick Library Screening Results, E. faecium (increase in extracellular AK activity)): 0.9

SMILES: NC(=O)c1ccc[n+]([C@@H]2O[C@H](COP(=O)([O-])OP(=O)(O)OC[C@H]3O[C@@H](n4cnc5c(N)ncnc54)[C@H](O)[C@@H]3O)[C@@H](O)[C@H]2O)c1 [Nadide]
- fold induction at 50 µM ([1]; planktonic, cutoff for positive-scoring molecules 3-fold increase, read-out: AK-based Prestwick Library Screening Results, S. aureus (fold increase in extracellular AK activity)): 0.6
- fold induction at 50 µM (E. coli; planktonic, cutoff for positive-scoring molecules 3-fold increase, read-out: AK-based Prestwick Library Screening Results, E. coli (fold increase in extracellular AK activity)): 0.9
- fold induction at 50 µM (P. aeruginosa; planktonic, cutoff for positive-scoring molecules 3-fold increase, read-out: AK-based Prestwick Library Screening Results, P. aeruginosa (fold increase in extracellular AK activity)): 0.8
- fold induction at 50 µM (E. cloacae; planktonic, cutoff for positive-scoring molecules 3-fold increase, read-out: AK-based Prestwick Library Screening Results, E. cloacae (fold increase in extracellular AK activity)): 0.9
- fold induction at 50 µM (K. pneumoniae; planktonic, cutoff for positive-scoring molecules 3-fold increase, read-out: AK-based Prestwick Library Screening Results, K. pneumoniae (fold increase in extracellular AK activity)): 0.7
- fold induction at 50 µM ([2]; planktonic, cutoff for positive-scoring molecules 3-fold increase, read-out: AK-based Prestwick Library Screening Results, A. baumannii (fold increase in extracellular AK activity)): 0.8
- fold induction at 50 µM (E. faecium; planktonic, cutoff for positive-scoring molecules 3-fold increase, read-out: AK-based Prestwick Library Screening Results, E. faecium (fold increase in extracellular AK activity)): 0.9

SMILES: CN1CCCN=C1/C=C/c1cccc(O)c1.O=C(O)c1cc2ccccc2c(Cc2c(O)c(C(=O)O)cc3ccccc23)c1O [Oxantel pamoate]
- AK-based Prestwick Library Screening Results, S. aureus (fold increase in extracellular AK activity) [1, 4]: 1.3
- AK-based Prestwick Library Screening Results, E. coli (fold increase in extracellular AK activity) (E. coli; [4]): 1.1
- AK-based Prestwick Library Screening Results, P. aeruginosa (fold increase in extracellular AK activity) (P. aeruginosa; [4]): 1.0
- AK-based Prestwick Library Screening Results, E. cloacae (fold increase in extracellular AK activity) (E. cloacae; [4]): 1.8
- AK-based Prestwick Library Screening Results, K. pneumoniae (fold increase in extracellular AK activity) (K. pneumoniae; [4]): 1.0
- AK-based Prestwick Library Screening Results, A. baumannii (fold increase in extracellular AK activity) [2, 4]: 1.1
- AK-based Prestwick Library Screening Results, E. faecium (fold increase in extracellular AK activity) (E. faecium; [4]): 1.0
